From publication PMC6270570, “New Flurbiprofen Derivatives: Synthesis, Membrane Affinity and Evaluation of in Vitro Effect on β-Amyloid Levels” (Molecules, 2013)
Where two headings read alike, the source gives them in different places. Marks after values point to notes of the source that are not given here.

What was measured:
[1] = PAMPA-BBB permeability (porcine polar brain lipid extract); format: in vitro ADME; conditions: for Papp at 18 h, 500 µM: PAMPA
Method: (§1) The following protocol was applied to measure the Pe through the artificial membrane to predict oral absorption and BBB permeation. In order to study the g.i. permeability, a 2% solution (w/v) of egg lecithin (phosphatidyl choline > 98%, PC) in dodecane was employed as an artificial membrane solution. The effective permeability of BBB was measured using phospholipid mixture from porcine polar brain lipid extract, composed by PC 12.6%, phosphatidylethanolamine (PE) 33.1%, phosphatidylserine (PS) 18.5%, phosphatidylinositol (PI) 4.1%, phospatidic acid (PA) 0.8% and 30.9% of other compounds (purchased from Avantis Polar Lipids, Alabaster, AL, USA). Each donor filtration plate well was then impregnated with 5 µL of this solution carefully, and immediately after 150 µL of phosphate buffer (pH 7.4/pH 6.5), containing co-drug 1 500 µM and iPrOH 20% as co-solvent was added. Then the drug-filled donor plate was placed into the acceptor plate that had been prefilled with the same buffer (300 µL) as acceptor solution. After plate lid was replaced, the resulting assembled donor-acceptor plates were incubated at r.t. for 2 h for PAMPA-GI and 18 h for PAMPA-BBB, following which drugs concentration in the acceptor and donor solutions were determined by HPLC [37].
(§2) Log Pe can be calculated from the equation below: [drawing 10] (2) where Pe is the effective permeability coefficient (cm x s^−1), VD is volume of donor compartment (0.15 cm^3) and VA is volume of acceptor compartment (0.30 cm^3), A is effective filter area (0.28 cm^2), t is incubation time for the assay (s), Cacceptor is the concentration of the compound in the acceptor compartment at the completion of the assay, and Cequilibrium is the concentration of compound at theoretical equilibrium.

[2] = IAM-HPLC affinity for membrane phospholipids (logKIAM/W); format: physicochemical; conditions: IAM.PC.MG column, pH 7.0 phosphate buffer/acetonitrile, extrapolated to 100% aqueous eluent
Method: n-Octanol/water partition coefficients were theoretically calculated by the program clogP for windows version 2.0 (Biobyte Corp., Claremont, CA, USA). Affinity for membrane phospholipids, so called “phospholipophilicity”, was measured by HPLC on a phospholipid stationary phase. […] liquid chromatograph (Waters-Millipore, Milford, MA, USA), equipped with a 7125 Rheodyne injection valve and a 486 UV detector (Waters) set at 246 nm, was used. The column was an IAM.PC.MG (Immobilized Artificial Membrane-PhosphatidylCholine-MethylGlycolate) (4.6 mm × 150 mm) (Regis Chemical Company, Morton Grove, IL, USA). The mobile phase was 0.01 M phosphate buffer at pH 7.0 and acetonitrile at percentages ranging from 10 to 35 percent (v/v) (from 1.0 to 4.0 mL/min). The chromatography was carried out at room temperature. All samples were dissolved in methanol (ca. 10^-3 M) and 20 μL samples were injected in the chromatograph. Chromatographic retention data are expressed as the logarithm of the capacity factor, log k, defined as: log k = log [(tr - t0)/t0] (1) where tr and t0 are the retention times of the drug and a non-retained compound (citric acid), respectively. The log k values relative to 100% aqueous eluent (logKIAM/W) were calculated by performing a polycratic method of extrapolation. Each compound was eluted with at least three different mobile phases containing acetonitrile in different percentages (φ). […] All values of log k reported are the average of at least three measurements; the 95% confidence interval never exceeded 0.04 for each log k value. Possible occurrence of retention changes due to column aging was monitored by checking the retention times of five test compounds (amlodipine, p-nitroaniline, toluene, isradipine, and ketoprofen).

[3] = PAMPA-GI permeability (egg lecithin in dodecane); format: in vitro ADME; conditions: read-out: PAMPA-GI Pe
Method: as §1, §2

[4] = test system: Aβ-42; test: Western blotting of Aβ-42 expression in CTXTNA2 astrocytes (in vitro γ-secretase activity); format: cell-based, rat; conditions: 24 h; for Aβ-42 production, effect in words: 1 µM to 100 µM, without affecting the APP level
Method: CTXTNA2 cell line, established from primary cultures of type 1 astrocytes from brain frontal cortex tissue of 1 day old rats, was obtained by ECACC (Salisbury, UK). Cells have been maintained in DMEM, 10% FBS at 37 °C, 5% CO2 until sub-confluence and incubated for 24 h with a DMSO solution of drug (concentrations ranging from 1 µM to 100 µM). For detection of cell viability, a Trypan blue dye exclusion test has been performed.
Cell lysates (20 µg) have been electrophoresed and transferred to nitrocellulose membrane. Nitrocellulose membranes, blocked in 5% non-fat milk, 10 mmol/L Tris pH 7.5, 100 mmol/L NaCl, 0.1% Tween-20, have been probed with mouse APP (Millipore, Billerica, MA, USA) and Aβ (Alpha Diagnostic Intl, San Antonio, TX, USA) monoclonal antibodies (Santa Cruz Biotechnology, Santa Cruz, CA, USA), then incubated in the presence of specific enzyme conjugated IgG horseradish peroxidase. Immunoreactive bands have been detected by ECL detection system (Amersham Intl., Buckinghamshire, UK) and analysed by densitometry. Densitometric values, expressed as Integrated Optical Intensity (I.O.I.), have been estimated in a CHEMIDOC XRS system by the QuantiOne 1-D analysis software (BioRad, Richmond, CA, USA). Values obtained have been normalized basing on densitometric values of internal β tubulin. Statistical analysis has been performed using the analysis of variance (ANOVA). Results have been expressed as mean ± SD. Values of p < 0.05 have been considered statistically significant.

[5] = test system: APP; conditions: 24 h
Method: For detection of cell viability, a Trypan blue dye exclusion test has been performed [33].
Cell lysates (20 µg) have been electrophoresed and transferred to nitrocellulose membrane. […] Immunoreactive bands have been detected by ECL detection system (Amersham Intl., Buckinghamshire, UK) and analysed by densitometry. Densitometric values, expressed as Integrated Optical Intensity (I.O.I.), have been estimated in a CHEMIDOC XRS system by the QuantiOne 1-D analysis software (BioRad, Richmond, CA, USA). Values obtained have been normalized basing on densitometric values of internal β tubulin. Statistical analysis has been performed using the analysis of variance (ANOVA). Results have been expressed as mean ± SD. Values of p < 0.05 have been considered statistically significant.

[6] = RP-HPLC retention factor extrapolated to 100% water (KC18/W); format: physicochemical; conditions: for KC18/W (retention factor extrapolated to 100% water): RP-HPLC, acetonitrile/water mixtures; for chromatographic logP: by comparison with KC18/W and logP of nisoldipine and lacidipine, read-out: logP calculated from KC18/W
Method: Similarly, due to their high lipophilicity, experimental n-octanol/water lipophilicity values of enantiomers 8/9 were determined by RP-HPLC because their characterization through the “classical” shake-flask method was expected to be difficult and scarcely reproducible. The retention factor, determined in acetonitrile/water mixtures and extrapolated to 100% water (KC18/W) for enantiomers 8/9 was 3.94 (data not shown).

[7] = parameters: method as in doi:10.1016/0223-5234(96)80368-0; conditions: n-octanol/water; cited from earlier work
[8] = pH 7.4, 18 h of incubation, read-out: PAMPA-BBB Pe

| Structure (SMILES) | Papp at 18 h, 500 µM [1, 8] [×10⁻⁶ cm/s] | LogKIAM/W [2] | melting point [°C] | Papp at 2 h, 500 µM ([3]; pH 6.5, 2 h of incubation) [×10⁻⁶ cm/s] | Papp at 2 h, 500 µM ([3]; pH 7.4, 2 h of incubation) [×10⁻⁶ cm/s] | Expression of Aβ-42 ([4]; 1 µM) | Expression of Aβ-42 ([4]; 10 µM) | Expression of Aβ-42 ([4]; 100 µM) | Expression of APP ([5]; 1 µM) | Expression of APP ([5]; 10 µM) | Expression of APP ([5]; 100 µM) | Aβ-42 production, effect in words [4] | PAMPA-BBB Pe ([1]; pH 7.4, 18 h of incubation) | Papp at 18 h, 500 µM ([1]; read-out: Pe, BBB penetration) [×10⁻⁶ cm/s] | KC18/W (retention factor extrapolated to 100% water) [6] | chromatographic logP [6] | logP (experimentally determined values) [7] |
| --- | --- | --- | --- | --- | --- | --- | --- | --- | --- | --- | --- | --- | --- | --- | --- | --- | --- |
| C[C@H](NC(=O)[C@H](C)c1ccc(-c2ccccc2)c(F)c1)C(=O)N[C@H](C(=O)OC(C)(C)C)c1ccccc1 [Compound 1, tert-Butyl (2S)-({N-[(2R)-2-(2-fluoro-1,1'-biphenyl-4-yl)propanoyl]-L-alanyl}amino)(phenyl)acetate] | 2.4 | 3.67 | 105 to 107 | 3.7 | 4.8 | (29.2 ± 1.2) × 10^−2 | (43.5 ± 1.6) × 10^−2 | (45.8. ± 1.3) × 10^−2 | (93.1 ± 3.8) × 10^−2 | (89.4 ± 3.2) × 10^−2 | (120 ± 3.2) × 10^−2 |  |  |  |  |  |  |
| C[C@H](NC(=O)[C@@H](C)c1ccc(-c2ccccc2)c(F)c1)C(=O)N[C@H](C(=O)OC(C)(C)C)c1ccccc1 [Compound 2, tert-Butyl(2S)-({N-[(2S)-2-(2-fluoro-1,1'-biphenyl-4-yl)propanoyl]-L-alanyl}amino)(phenyl)acetate] | 2.1 | 3.80 | 106 to 108 | 3.6 | 4.1 | (20.0 ± 1.1) × 10^−2 | (12.1 ± 0.6) × 10^−2 | (8.4 ± 0.2) × 10^−2 | (93.1 ± 2.6) × 10^−2 | (93.3 ± 3.5) × 10^−2 | (63.6 ± 2.8) × 10^−2 | highly effective |  |  |  |  |  |
| C[C@H](NC(=O)Cc1ccc(-c2ccccc2)c(F)c1)C(=O)N[C@H](C(=O)OC(C)(C)C)c1ccccc1 [Compound 3, tert-butyl (2S)-({N-[(2-fluoro-1,1'-biphenyl-4-yl)acetyl]-L-alanyl}amino)(phenyl)acetate] |  | 3.64 | 104 to 106 | 2.1 | 2 | (8.8. ± 0.4) × 10^−2 | (10.5 ± 0.4) × 10^−2 | (45.8. ± 1.3) × 10^−2 | (64.1 ± 2.3) × 10^−2 | (72.2 ± 2.1) × 10^−2 | (105 ± 3.2) × 10^−2 |  | 2.0 10^−6 cm/s |  |  |  |  |
| C[C@@H](C(=O)N[C@H]1C(=O)N(C)c2ccccc2-c2ccccc21)c1ccc(-c2ccccc2)c(F)c1 [Compound 4, (2R)-2-(2-Fluoro-1,1'-biphenyl-4-yl)-N-[(7R)-5-methyl-6-oxo-6,7-dihydro-5H-dibenzo[b,d]azepin-7-yl]propanamide] |  | 3.21 | 100 to 103 |  |  | (11.0 ± 0.4) × 10^−2 | (12.1 ± 0.4) × 10^−2 | (16.2 ± 0.7) × 10^−2 | (51.3 ± 2.6) × 10^−2 | (39.9 ± 1.6) × 10^−2 | (60.1 ± 2.7) × 10^−2 |  |  | ≥ 4 |  |  |  |
| C[C@H](C(=O)N[C@@H]1C(=O)N(C)c2ccccc2-c2ccccc21)c1ccc(-c2ccccc2)c(F)c1 [Compound 7, (2S)-2-(2-Fluoro-1,1'-biphenyl-4-yl)-N-[(7S)-5-methyl-6-oxo-6,7-dihydro-5H-dibenzo[b,d]azepin-7-yl]propanamide] |  | 3.21 | 102 to 104 |  |  | (12.4. ± 0.1) × 10^−2 | (11.1 ± 0.3) × 10^−2 | (9.2 ± 0.3) × 10^−2 | (9.0 ± 0.3) × 10^−2 | (8.0 ± 0.3) × 10^−2 | (10.1 ± 3.2) × 10^−2 | highly effective |  | ≥ 4 |  |  |  |
| CN1C(=O)[C@H](NC(=O)Cc2ccc(-c3ccccc3)c(F)c2)c2ccccc2-c2ccccc21 [Compound 8, 2-(2-Fluoro-1,1'-biphenyl-4-yl)-N-[(7R)-5-methyl-6-oxo-6,7-dihydro-5H-dibenzo[b,d]azepin-7-yl]-acetamide] | 2.3 | 3.58 | 96 to 100 | 2.5 | 2.6 | (31.1 ± 0.9) × 10^−2 | (25.0 ± 1.0) × 10^−2 | (35.2 ± 1.1) × 10^−2 | (82.3 ± 3.2) × 10^−2 | (68.1 ± 3.2) × 10^−2 | (94.4 ± 4.2) × 10^−2 |  |  |  | 3.94 | 5.49 |  |
| CN1C(=O)[C@@H](NC(=O)Cc2ccc(-c3ccccc3)c(F)c2)c2ccccc2-c2ccccc21 [Compound 9, 2-(2-Fluoro-1,1'-biphenyl-4-yl)-N-[(7S)-5-methyl-6-oxo-6,7-dihydro-5H-dibenzo[b,d]azepin-7-yl]-acetamide] | 2.3 | 3.58 | 96 to 100 | 2.5 | 2.6 | (43.2 ± 2.1) × 10^−2 | (38.4 ± 1.0) × 10^−2 | (14.0 ± 0.5) × 10^−2 | (68.7 ± 2.2) × 10^−2 | (69.2 ± 1.4) × 10^−2 | (94.3 ± 3.2) × 10^−2 |  |  |  | 3.94 | 5.49 |  |
| CCOC(=O)C1=C(C)NC(C)=C(C(=O)OCC)C1c1ccccc1/C=C/C(=O)OC(C)(C)C [Lacidipine, reference compound] |  | 3.52 |  |  |  |  |  |  |  |  |  |  |  |  | 4.01 |  | 5.56 ^a |
| COC(=O)C1=C(C)NC(C)=C(C(=O)OCC(C)C)C1c1ccccc1[N+](=O)[O-] (stereo not shown) [Nisoldipine, reference compound] |  | 2.63 |  |  |  |  |  |  |  |  |  |  |  |  | 2.99 |  | 4.53 ^a |
